Results taken from PubChem BioAssay AID270 (DTP/NCI, 2004).
Where “and” joins values, the source holds several entries; their conditions need not be identical. Equal values may be shown once. Results filed as inconclusive are left out.

Test system: BDF1 mice, s.c. Lewis lung carcinoma, T/C %
Test: NCI In Vivo Anticancer Drug Screen. Data for tumor model Lewis Lung Carcinoma (subcutaneous) in B6D2F1 (BDF1) mice
How it was run: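 The value reflects a ratio in which the treated cohort's survival time or tumour size is compared against mice receiving only vehicle.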

N#CC(Cc1ccccc1)C(=O)O (stereo not drawn)
T/C (endpoint: mean tumor weight, dose: 55.0 mg/kg/injection, schedule: Q01DX011 (ip), vehicle: other, higher = larger tumour): 80 % of control | T/C (endpoint: mean tumor weight, dose: 83.0 mg/kg/injection, schedule: Q01DX011 (ip), vehicle: other, higher = larger tumour): 68 % of control | T/C (endpoint: mean tumor weight, dose: 125.0 mg/kg/injection, schedule: Q01DX011 (ip), vehicle: other, higher = larger tumour): 75 % of control and 82 % of control | T/C (endpoint: mean tumor weight, dose: 187.0 mg/kg/injection, schedule: Q01DX011 (ip), vehicle: other, higher = larger tumour): 46 % of control | T/C (endpoint: mean tumor weight, dose: 250.0 mg/kg/injection, schedule: Q01DX011 (ip), vehicle: other, higher = larger tumour): 63 % of control | T/C (endpoint: mean tumor weight, dose: 500.0 mg/kg/injection, schedule: Q01DX011 (ip), vehicle: other, higher = larger tumour): 19 % of control

CC(=O)[C@H]1CC[C@H]2[C@@H]3CCC4=CC(=O)CC[C@]4(C)[C@H]3CC[C@]12C
T/C (endpoint: median survival time, dose: 12.5 mg/kg/injection, schedule: Q02DX009 (ip), vehicle: Klucel (hydroxypropylcellulose) (HPC), higher = longer survival): 99 % of control | T/C (endpoint: median survival time, dose: 25.0 mg/kg/injection, schedule: Q02DX009 (ip), vehicle: Klucel (hydroxypropylcellulose) (HPC), higher = longer survival): 107 % of control | T/C (endpoint: median survival time, dose: 50.0 mg/kg/injection, schedule: Q02DX009 (ip), vehicle: Klucel (hydroxypropylcellulose) (HPC), higher = longer survival): 90 % of control | T/C (endpoint: median survival time, dose: 100.0 mg/kg/injection, schedule: Q02DX009 (ip), vehicle: Klucel (hydroxypropylcellulose) (HPC), higher = longer survival): 95 % of control | T/C (endpoint: median survival time, dose: 200.0 mg/kg/injection, schedule: Q02DX009 (ip), vehicle: Klucel (hydroxypropylcellulose) (HPC), higher = longer survival): 101 % of control | T/C (endpoint: median survival time, dose: 400.0 mg/kg/injection, schedule: Q02DX009 (ip), vehicle: Klucel (hydroxypropylcellulose) (HPC), higher = longer survival): 96 % of control

Cc1cc(N(CCCl)CCCl)ccc1N=Nc1ccccc1C(=O)O
T/C (endpoint: median survival time, dose: 2.0 mg/kg/injection, schedule: Q01DX009 (ip), vehicle: saline with Tween-80, higher = longer survival): 101 % of control | T/C (endpoint: median survival time, dose: 4.0 mg/kg/injection, schedule: Q01DX009 (ip), vehicle: saline with Tween-80, higher = longer survival): 105 % of control and 111 % of control | T/C (endpoint: median survival time, dose: 8.0 mg/kg/injection, schedule: Q01DX009 (ip), vehicle: saline with Tween-80, higher = longer survival): 96 % of control and 104 % of control | T/C (endpoint: median survival time, dose: 10.0 mg/kg/injection, schedule: Q01DX001 (ip), vehicle: saline with Tween-80, higher = longer survival): 107 % of control | T/C (endpoint: median survival time, dose: 20.0 mg/kg/injection, schedule: Q01DX001 (ip), vehicle: saline with Tween-80, higher = longer survival): 92 % of control | T/C (endpoint: median survival time, dose: 32.0 mg/kg/injection, schedule: Q04DX003 (ip), vehicle: saline with Tween-80, higher = longer survival): 116 % of control

CC1CCCCN1CCNc1ccc(CO)c2sc3ccccc3c(=O)c12 (stereo not drawn)
T/C (endpoint: median survival time, dose: 25.0 mg/kg/injection, schedule: Q01DX009 (ip), vehicle: saline with Tween-80, higher = longer survival): 108 % of control | T/C (endpoint: median survival time, dose: 50.0 mg/kg/injection, schedule: Q01DX009 (ip), vehicle: saline with Tween-80, higher = longer survival): 100 % of control | T/C (endpoint: median survival time, dose: 100.0 mg/kg/injection, schedule: Q01DX009 (ip), vehicle: saline with Tween-80, higher = longer survival): 122 % of control

CO[C@H]1Nc2c(ccc(C)c2O)C(=O)N2C=C(/C=C/C(N)=O)C[C@@H]12
T/C (endpoint: median survival time, dose: 0.03 mg/kg/injection, schedule: Q04DX003 (ip), vehicle: saline with Tween-80, higher = longer survival): 92 % of control | T/C (endpoint: median survival time, dose: 0.04 mg/kg/injection, schedule: Q04DX003 (ip), vehicle: saline with Tween-80, higher = longer survival): 103 % of control | T/C (endpoint: median survival time, dose: 0.06 mg/kg/injection, schedule: Q04DX003 (ip), vehicle: saline with Tween-80, higher = longer survival): 89 % of control and 98 % of control | T/C (endpoint: median survival time, dose: 0.13 mg/kg/injection, schedule: Q04DX003 (ip), vehicle: saline with Tween-80, higher = longer survival): 98 % of control | T/C (endpoint: median survival time, dose: 0.25 mg/kg/injection, schedule: Q04DX003 (ip), vehicle: saline with Tween-80, higher = longer survival): 99 % of control | T/C (endpoint: median survival time, dose: 50.0 micrograms/kg/injection, schedule: Q04DX003 (ip), vehicle: saline + alcohol, higher = longer survival): 107 % of control | T/C (endpoint: median survival time, dose: 100.0 micrograms/kg/injection, schedule: Q04DX003 (ip), vehicle: saline + alcohol, higher = longer survival): 106 % of control | T/C (endpoint: median survival time, dose: 200.0 micrograms/kg/injection, schedule: Q04DX003 (ip), vehicle: saline + alcohol, higher = longer survival): 97 % of control

COc1ccc(-c2cc(=O)c3c(O)cc(OC)cc3o2)cc1
T/C (endpoint: mean tumor weight, dose: 220.0 mg/kg/injection, schedule: Q01DX011 (ip), vehicle: saline, higher = larger tumour): 84 % of control | T/C (endpoint: mean tumor weight, dose: 330.0 mg/kg/injection, schedule: Q01DX011 (ip), vehicle: saline, higher = larger tumour): 71 % of control and 89 % of control | T/C (endpoint: mean tumor weight, dose: 500.0 mg/kg/injection, schedule: Q01DX011 (ip), vehicle: saline, higher = larger tumour): 48 % of control and 60 % of control

CCOCCCN
T/C (endpoint: mean tumor weight, dose: 44.0 mg/kg/injection, schedule: Q01DX011 (ip), vehicle: saline, higher = larger tumour): 106 % of control | T/C (endpoint: mean tumor weight, dose: 66.0 mg/kg/injection, schedule: Q01DX011 (ip), vehicle: saline, higher = larger tumour): 97 % of control | T/C (endpoint: mean tumor weight, dose: 100.0 mg/kg/injection, schedule: Q01DX011 (ip), vehicle: saline, higher = larger tumour): 123 % of control | T/C (endpoint: mean tumor weight, dose: 148.0 mg/kg/injection, schedule: Q01DX011 (ip), vehicle: saline, higher = larger tumour): 101 % of control

COc1ccc([C@@H]2c3cc4c(cc3C[C@H]3COC(=O)[C@@H]32)OCO4)cc1OC
T/C (endpoint: median survival time, dose: 11.0 mg/kg/injection, schedule: Q01DX009 (ip), vehicle: saline with Tween-80, higher = longer survival): 98 % of control | T/C (endpoint: median survival time, dose: 22.0 mg/kg/injection, schedule: Q01DX009 (ip), vehicle: saline with Tween-80, higher = longer survival): 100 % of control | T/C (endpoint: median survival time, dose: 33.0 mg/kg/injection, schedule: Q01DX009 (ip), vehicle: saline with Tween-80, higher = longer survival): 97 % of control

CNNCc1ccc(C(=O)NC(C)C)cc1
T/C (endpoint: median survival time, dose: 25.0 mg/kg/injection, schedule: Q08HX024 (ip), vehicle: saline, higher = longer survival): 100 % of control | T/C (endpoint: median survival time, dose: 50.0 mg/kg/injection, schedule: Q08HX024 (ip), vehicle: saline, higher = longer survival): 112 % of control

NC(Cc1cc([N+](=O)[O-])ccc1CN(CCCl)CCCl)C(=O)O (stereo not drawn)
T/C (endpoint: median survival time, dose: 1.0 mg/kg/injection, schedule: Q01DX009 (ip), vehicle: Klucel (hydroxypropylcellulose) (HPC), higher = longer survival): 110 % of control | T/C (endpoint: median survival time, dose: 2.0 mg/kg/injection, schedule: Q01DX009 (ip), vehicle: Klucel (hydroxypropylcellulose) (HPC), higher = longer survival): 116 % of control | T/C (endpoint: median survival time, dose: 3.12 mg/kg/injection, schedule: Q01DX001 (ip), vehicle: Klucel (hydroxypropylcellulose) (HPC), higher = longer survival): 107 % of control | T/C (endpoint: median survival time, dose: 6.25 mg/kg/injection, schedule: Q01DX001 (ip), vehicle: Klucel (hydroxypropylcellulose) (HPC), higher = longer survival): 104 % of control | T/C (endpoint: median survival time, dose: 12.5 mg/kg/injection, schedule: Q01DX001 (ip), vehicle: Klucel (hydroxypropylcellulose) (HPC), higher = longer survival): 103 % of control

CCCCCC[N+](CCCCCC)(CCCCCC)CCCCCC
T/C (endpoint: median survival time, dose: 0.75 mg/kg/injection, schedule: Q01DX009 (ip), vehicle: Klucel (hydroxypropylcellulose) (HPC), higher = longer survival): 110 % of control | T/C (endpoint: median survival time, dose: 1.5 mg/kg/injection, schedule: Q01DX009 (ip), vehicle: Klucel (hydroxypropylcellulose) (HPC), higher = longer survival): 91 % of control | T/C (endpoint: median survival time, dose: 3.0 mg/kg/injection, schedule: Q01DX009 (ip), vehicle: Klucel (hydroxypropylcellulose) (HPC), higher = longer survival): 102 % of control

CC[n+]1ccc(Nc2ccc(/C=C/c3ccc4cc(Nc5cc[n+](CC)cc5)ccc4[n+]3CC)cc2)cc1
T/C (endpoint: median survival time, dose: 2.5 mg/kg/injection, schedule: Q01DX009 (ip), vehicle: saline, higher = longer survival): 95 % of control | T/C (endpoint: median survival time, dose: 5.0 mg/kg/injection, schedule: Q01DX009 (ip), vehicle: saline, higher = longer survival): 100 % of control | T/C (endpoint: median survival time, dose: 10.0 mg/kg/injection, schedule: Q01DX009 (ip), vehicle: saline, higher = longer survival): 91 % of control

CC(C)C(=O)[O][Sn]([CH3])([CH3])[CH3]
T/C (endpoint: median survival time, dose: 0.09 mg/kg/injection, schedule: Q01DX009 (ip), vehicle: saline, higher = longer survival): 97 % of control | T/C (endpoint: median survival time, dose: 0.19 mg/kg/injection, schedule: Q01DX009 (ip), vehicle: saline, higher = longer survival): 101 % of control | T/C (endpoint: median survival time, dose: 0.38 mg/kg/injection, schedule: Q01DX009 (ip), vehicle: saline, higher = longer survival): 89 % of control and 105 % of control

C[C@]12CCC(=O)C=C1CC[C@@H]1[C@@H]2[C@@H](O)C[C@@]2(C)[C@H]1CC[C@]2(O)C(=O)COC(=O)CCC(=O)O
T/C (endpoint: mean tumor weight, dose: 87.5 mg/kg/injection, schedule: Q01DX011 (sc), vehicle: steriod suspending solution, higher = larger tumour): 76 % of control | T/C (endpoint: mean tumor weight, dose: 175.0 mg/kg/injection, schedule: Q01DX011 (sc), vehicle: steriod suspending solution, higher = larger tumour): 79 % of control | T/C (endpoint: mean tumor weight, dose: 350.0 mg/kg/injection, schedule: Q01DX011 (sc), vehicle: steriod suspending solution, higher = larger tumour): 66 % of control | T/C (endpoint: mean tumor weight, dose: 500.0 mg/kg/injection, schedule: Q01DX011 (sc), vehicle: steriod suspending solution, higher = larger tumour): 26 % of control | T/C (endpoint: mean tumor weight, dose: 700.0 mg/kg/injection, schedule: Q01DX011 (sc), vehicle: steriod suspending solution, higher = larger tumour): 72 % of control

Cc1cc(NCCCCCCNc2cc(C)nc3ccc(N)cc23)c2cc(N)ccc2n1
T/C (endpoint: median tumor weight (est.), dose: 18.75 mg/kg/injection, schedule: Q01DX009 (ip), vehicle: Klucel (hydroxypropylcellulose) (HPC), higher = larger tumour): 75 % of control | T/C (endpoint: median tumor weight (est.), dose: 37.5 mg/kg/injection, schedule: Q01DX009 (ip), vehicle: Klucel (hydroxypropylcellulose) (HPC), higher = larger tumour): 54 % of control | T/C (endpoint: median tumor weight (est.), dose: 37.5 mg/kg/injection, schedule: Q01DX009 (oral), vehicle: Klucel (hydroxypropylcellulose) (HPC), higher = larger tumour): 90 % of control | T/C (endpoint: median tumor weight (est.), dose: 75.0 mg/kg/injection, schedule: Q01DX009 (ip), vehicle: Klucel (hydroxypropylcellulose) (HPC), higher = larger tumour): 27 % of control | T/C (endpoint: median tumor weight (est.), dose: 75.0 mg/kg/injection, schedule: Q01DX009 (oral), vehicle: Klucel (hydroxypropylcellulose) (HPC), higher = larger tumour): 102 % of control | T/C (endpoint: median tumor weight (est.), dose: 150.0 mg/kg/injection, schedule: Q01DX009 (oral), vehicle: Klucel (hydroxypropylcellulose) (HPC), higher = larger tumour): 102 % of control | T/C (endpoint: median tumor weight (est.), dose: 300.0 mg/kg/injection, schedule: Q01DX009 (oral), vehicle: Klucel (hydroxypropylcellulose) (HPC), higher = larger tumour): 84 % of control | T/C (endpoint: median tumor weight (est.), dose: 600.0 mg/kg/injection, schedule: Q01DX009 (oral), vehicle: Klucel (hydroxypropylcellulose) (HPC), higher = larger tumour): 83 % of control
